Columns and labels:
Assay type in all cases: toxicity, cell-based
Fibroblast = assay: Incucyte cell viability with human fibroblast; conditions: 10 µM, compound concentration 10 uM
HEK-293T = assay: Incucyte cell viability with HEK293T; conditions: human, 10 µM, compound concentration 10 uM
U2OS = assay: Incucyte cell viability with U2OS; conditions: human, 10 µM, compound concentration 10 uM
[1] = 0 h, replicate number 1, timepoint 0 hours
[2] = 6 h, replicate number 1, timepoint 6 hours
[3] = 12 h, replicate number 1, timepoint 12 hours
[4] = 12 h, replicate number 2, timepoint 12 hours
[5] = 18 h, replicate number 1, timepoint 18 hours
[6] = 24 h, replicate number 1, timepoint 24 hours
[7] = 24 h, replicate number 2, timepoint 24 hours
[8] = 6 h, replicate number 2, timepoint 6 hours
[9] = 0 h, replicate number 2, timepoint 0 hours
[10] = 18 h, replicate number 2, timepoint 18 hours
Note: filed as whole numbers so only -1 and 0 and 1 occur.

Row | Compound | Growth Rate (Fibroblast; [1]) | Growth Rate (Fibroblast; [2]) | Growth Rate (Fibroblast; [3]) | Growth Rate (Fibroblast; [5]) | Growth Rate (Fibroblast; [6]) | Growth Rate (HEK-293T; [1]) | Growth Rate (HEK-293T; [2]) | Growth Rate (HEK-293T; [3]) | Growth Rate (HEK-293T; [4]) | Growth Rate (HEK-293T; [5]) | Growth Rate (HEK-293T; [6]) | Growth Rate (U2OS; [1]) | Growth Rate (U2OS; [8]) | Growth Rate (U2OS; [3]) | Growth Rate (U2OS; [5]) | Growth Rate (U2OS; [6]) | Growth Rate (Fibroblast; [10]) | Growth Rate (U2OS; [10]) | Growth Rate (U2OS; [7]) | Growth Rate (U2OS; [2]) | also measured
1 | Cc1cc(SCc2sc(-c3ccc(C(F)(F)F)c(F)c3)nc2C)ccc1OCC(=O)O | 0 | 1 | 1 | 1 | 1 | 0 | 1 | 1 | 0 | 0 | 0 | 0 | 1 | 1 | 1 | 1 |  |  |  |  | Growth Rate (Fibroblast; [4]): 0; Growth Rate (Fibroblast; [7]): 0
2 | CCCCN(CCCC)C(=O)CN1C[C@@H](c2cc(OC)c3c(c2)OCO3)[C@H](C(=O)O)[C@H]1CC(C)(C)CCC.Cl |  | 0 | 0 | 0 | 0 | 0 | 0 | 0 |  | 0 | 0 |  | 0 | 0 | 0 | 0 | 1 | 1 | 1 |  | Growth Rate (Fibroblast; [9]): 0; Growth Rate (Fibroblast; [4]): 1; Growth Rate (Fibroblast; [7]): 1
3 | NS(=O)(=O)c1cc(NC(=O)C2(c3ccccc3Cl)CC2)ccc1Oc1cccc(Cl)c1 [BAY-207] | 0 | 1 |  | 1 | 1 | 0 | 0 | 0 |  | 0 | 0 | 0 |  | 0 | 0 | 1 |  |  | 0 | 0 | Growth Rate (Fibroblast; [8]): 0; Growth Rate (Fibroblast; [4]): 1
4 | C[C@@H](NCCc1ccc(O)cc1)[C@@H](O)c1ccc(O)cc1.Cl (relative stereo) | 0 |  |  |  |  | 0 | 0 | 0 | 1 | 0 | 0 | 0 | 1 | 1 | 1 | 1 | 1 |  |  |  | Growth Rate (Fibroblast; [7]): 1; Growth Rate (HEK-293T; [8]): 1
5 | O=C(c1ccc(F)c(F)c1Nc1ccc(I)cc1F)N1CC(O)([C@@H]2CCCCN2)C1 [COBIMETINIB] |  |  |  |  | 1 |  | 0 |  | 0 |  | 1 | 0 | 1 | 0 | 0 | 0 |  |  |  | 0 | Growth Rate (HEK-293T; [10]): 1; Growth Rate (HEK-293T; [7]): 0
6 | O=C(O)COc1cccc(CN(Cc2ccc(-n3cccn3)cc2)S(=O)(=O)c2cccnc2)c1 | 1 | 0 | 1 | 1 | 1 | 0 | 1 | 1 |  | 1 | 1 | 0 | 0 | 1 | 1 | 1 |  | 0 | 0 |  | Growth Rate (U2OS; [4]): 0
7 | CC(=O)N1CCC(c2ccc(C(=O)NC3=NCCN3)cc2C(F)(F)F)CC1 [BI 0054] | 0 | 1 | 1 | 1 | 1 | 1 | 1 | 0 |  | 1 | 1 | 0 |  | 1 | 1 | 1 |  |  |  |  | Growth Rate (Fibroblast; [8]): 0; Growth Rate (HEK-293T; [9]): 0; Growth Rate (HEK-293T; [8]): 0; Growth Rate (HEK-293T; [10]): 0; Growth Rate (HEK-293T; [7]): 0
8 | N#Cc1ccc(Nc2ccc3[nH]c(=O)[nH]c3c2)c(Cl)c1 [TP-021n] |  | 0 | 0 | 0 | 0 | 0 |  |  |  |  |  | 1 |  | 0 | 0 | 0 | 1 | 1 |  | 0 | Growth Rate (Fibroblast; [9]): 1; Growth Rate (HEK-293T; [9]): 1; Growth Rate (HEK-293T; [7]): 1; Growth Rate (U2OS; [9]): 0
9 | CN1CC(=O)N=C1NC(=O)Nc1cccc(Cl)c1 [FENOBAM ANHYDROUS] | 0 |  | 1 | 1 | 1 | 0 | 1 | 1 | 0 | 1 | 1 | 0 | 1 | 0 | 1 | 1 |  |  |  |  | Growth Rate (HEK-293T; [10]): 0; Growth Rate (HEK-293T; [7]): 0; Growth Rate (U2OS; [4]): 1
10 | Clc1cc2c(NC3CCCC3)nnc(-c3ccncc3)c2cc1Cl | 0 | 0 | 1 | 1 | 1 | 1 |  | 1 |  | 1 | 1 | 1 | 1 | 1 | 0 | 0 |  | 1 | 1 | 0 | Growth Rate (HEK-293T; [9]): 0
11 | Cc1cccc(NC(=O)N[C@@H]2N=C(c3ccccc3)c3ccccc3N(C)C2=O)c1 [L-365260] | 0 |  | 1 | 0 | 1 | 0 | 0 | 0 |  | 0 | 0 | 0 |  | 1 | 0 | 0 |  |  | 1 | 0 | Growth Rate (U2OS; [9]): 1; Growth Rate (U2OS; [4]): 0
12 | CCCOc1ccc([C@@H]2[C@@H](C(=O)O)[C@H](c3ccc4c(c3)OCO4)CN2CC(=O)Nc2c(CC)cccc2CC)cc1 [A-1806262] | 0 | 1 | 1 | 1 | 1 | 0 | 1 | 1 |  | 1 | 1 | 0 | 0 | 1 | 1 | 1 | 0 | 0 | 0 | 1 | Growth Rate (Fibroblast; [9]): 1; Growth Rate (Fibroblast; [8]): 0; Growth Rate (Fibroblast; [4]): 0; Growth Rate (Fibroblast; [7]): 0; Growth Rate (HEK-293T; [7]): 0
13 | Cc1cc(C(=O)N2Cc3cnn(C)c3Nc3ccccc32)ccc1CNC(=O)N1CCC[C@H]1C(=S)N1CCCN(C)CC1 | 0 | 0 | 1 | 0 | 0 | 1 | 0 | 0 | 1 | 0 | 0 |  |  | 0 | 0 | 0 | 1 | 1 |  | 0 | Growth Rate (HEK-293T; [9]): 0; Growth Rate (HEK-293T; [8]): 1; Growth Rate (U2OS; [9]): 0; Growth Rate (U2OS; [4]): 1
14 | Cc1cnc(-c2cc(Cl)ccc2F)cc1-n1c(=O)n(CC(N)=O)c2cnccc21 [TP-008] |  | 1 | 0 | 0 | 1 | 0 |  |  | 1 |  |  |  |  | 0 | 0 | 1 | 1 | 1 |  | 1 | Growth Rate (Fibroblast; [9]): 0; Growth Rate (Fibroblast; [4]): 1; Growth Rate (Fibroblast; [7]): 0; Growth Rate (HEK-293T; [9]): 1; Growth Rate (HEK-293T; [8]): 1; Growth Rate (HEK-293T; [7]): 1; Growth Rate (U2OS; [9]): 0; Growth Rate (U2OS; [4]): 1

Reference: ChEMBL document CHEMBL4689842, “EUbOPEN Chemogenomics Library wave 1” (2021)
